Data from patent US20250115595A1, “INHIBITORS OF HYPOXIA-INDUCIBLE FACTORS” (The Johns Hopkins University, priority 2021, published 2025).

Tested on: cytokine mRNAs
Test: RT-qPCR array of mouse cytokines and chemokines in Hepa1-6 tumors
Format: in vivo
Description: Total RNA from Hepa1-6 tumors was analyzed using the RT2 Profiler PCR Array of Mouse Cytokines and Chemokines (Qiagen, catalog number 330231 PAMM-150ZA) according to the manufacturer's instructions.

[1] = array of 84 cytokines and chemokines

SMILES: Brc1ccc2c(-c3csc(-c4c[nH]c5c(Br)cccc45)n3)c[nH]c2c1 [Compound 32-134D, 4-(6-bromo-1H-indol-3-yl)-2-(7-bromo-1H-indol-3-yl)thiazole]
- Mstn mRNA Fold Up- or Down-Regulation Test Group/Control Group (Hepa1-6 tumors, vs vehicle): −4.85
- Mstn mRNA X axis (Log2(fold change)) (Hepa1-6 tumors, vs vehicle): −2.28
- Nodal mRNA Fold Change Test Group/Control Group (Hepa1-6 tumors, vs vehicle): 0.29
- Nodal mRNA Fold Up- or Down-Regulation Test Group/Control Group (Hepa1-6 tumors, vs vehicle): −3.43
- Nodal mRNA X axis (Log2(fold change)) (Hepa1-6 tumors, vs vehicle): −1.78
- Osm mRNA Fold Change Test Group/Control Group (Hepa1-6 tumors, vs vehicle): 0.38
- Osm mRNA Fold Up- or Down-Regulation Test Group/Control Group (Hepa1-6 tumors, vs vehicle): −2.65
- Osm mRNA X axis (Log2(fold change)) (Hepa1-6 tumors, vs vehicle): −1.40
- Pf4 mRNA Fold Change Test Group/Control Group (Hepa1-6 tumors, vs vehicle): 0.68
- Pf4 mRNA Fold Up- or Down-Regulation Test Group/Control Group (Hepa1-6 tumors, vs vehicle): −1.47
- Pf4 mRNA X axis (Log2(fold change)) (Hepa1-6 tumors, vs vehicle): −0.56
- Ppbp mRNA Fold Change Test Group/Control Group (Hepa1-6 tumors, vs vehicle): 0.64
- Ppbp mRNA Fold Up- or Down-Regulation Test Group/Control Group (Hepa1-6 tumors, vs vehicle): −1.56
- Ppbp mRNA X axis (Log2(fold change)) (Hepa1-6 tumors, vs vehicle): −0.65
- Spp1 mRNA Fold Change Test Group/Control Group (Hepa1-6 tumors, vs vehicle): 1.71
- Spp1 mRNA Fold Up- or Down-Regulation Test Group/Control Group (Hepa1-6 tumors, vs vehicle): 1.71
- Spp1 mRNA X axis (Log2(fold change)) (Hepa1-6 tumors, vs vehicle): 0.77
- Tgfb2 mRNA Fold Change Test Group/Control Group (Hepa1-6 tumors, vs vehicle): 0.74
- Tgfb2 mRNA Fold Up- or Down-Regulation Test Group/Control Group (Hepa1-6 tumors, vs vehicle): −1.36
- Tgfb2 mRNA X axis (Log2(fold change)) (Hepa1-6 tumors, vs vehicle): −0.44
- Thpo mRNA Fold Change Test Group/Control Group (Hepa1-6 tumors, vs vehicle): 0.55
- Thpo mRNA Fold Up- or Down-Regulation Test Group/Control Group (Hepa1-6 tumors, vs vehicle): −1.82
- Thpo mRNA X axis (Log2(fold change)) (Hepa1-6 tumors, vs vehicle): −0.87
- Tnf mRNA Fold Change Test Group/Control Group (Hepa1-6 tumors, vs vehicle): 0.25
- Tnf mRNA Fold Up- or Down-Regulation Test Group/Control Group (Hepa1-6 tumors, vs vehicle): −4.00
- Tnf mRNA X axis (Log2(fold change)) (Hepa1-6 tumors, vs vehicle): −2.00
- Tnfrsf11b mRNA Fold Change Test Group/Control Group (Hepa1-6 tumors, vs vehicle): 0.25
- Tnfrsf11b mRNA Fold Up- or Down-Regulation Test Group/Control Group (Hepa1-6 tumors, vs vehicle): −4.07
- Tnfrsf11b mRNA X axis (Log2(fold change)) (Hepa1-6 tumors, vs vehicle): −2.02
- Tnfsf10 mRNA Fold Change Test Group/Control Group (Hepa1-6 tumors, vs vehicle): 1.02
- Tnfsf10 mRNA Fold Up- or Down-Regulation Test Group/Control Group (Hepa1-6 tumors, vs vehicle): 1.02
- Tnfsf10 mRNA X axis (Log2(fold change)) (Hepa1-6 tumors, vs vehicle): 0.03
- Tnfsf11 mRNA Fold Change Test Group/Control Group (Hepa1-6 tumors, vs vehicle): 0.38
- Tnfsf11 mRNA Fold Up- or Down-Regulation Test Group/Control Group (Hepa1-6 tumors, vs vehicle): −2.61
- Tnfsf11 mRNA X axis (Log2(fold change)) (Hepa1-6 tumors, vs vehicle): −1.39
- Tnfsf13b mRNA Fold Change Test Group/Control Group (Hepa1-6 tumors, vs vehicle): 0.88
- Tnfsf13b mRNA Fold Up- or Down-Regulation Test Group/Control Group (Hepa1-6 tumors, vs vehicle): −1.13
- Tnfsf13b mRNA X axis (Log2(fold change)) (Hepa1-6 tumors, vs vehicle): −0.18
- Vegfa mRNA Fold Change Test Group/Control Group (Hepa1-6 tumors, vs vehicle): 0.40
- Vegfa mRNA Fold Up- or Down-Regulation Test Group/Control Group (Hepa1-6 tumors, vs vehicle): −2.52
- Vegfa mRNA X axis (Log2(fold change)) (Hepa1-6 tumors, vs vehicle): −1.33
- Xcl1 mRNA Fold Change Test Group/Control Group (Hepa1-6 tumors, vs vehicle): 1.47
- Xcl1 mRNA Fold Up- or Down-Regulation Test Group/Control Group (Hepa1-6 tumors, vs vehicle): 1.47
- Xcl1 mRNA X axis (Log2(fold change)) (Hepa1-6 tumors, vs vehicle): 0.56
- lfna2 mRNA Fold Change Test Group/Control Group (Hepa1-6 tumors, vs vehicle): 0.26
- lfna2 mRNA Fold Up- or Down-Regulation Test Group/Control Group (Hepa1-6 tumors, vs vehicle): −3.85
- lfna2 mRNA X axis (Log2(fold change)) (Hepa1-6 tumors, vs vehicle): −1.95
- lfng mRNA Fold Change Test Group/Control Group (Hepa1-6 tumors, vs vehicle): 1.63
- lfng mRNA Fold Up- or Down-Regulation Test Group/Control Group (Hepa1-6 tumors, vs vehicle): 1.63
- lfng mRNA X axis (Log2(fold change)) (Hepa1-6 tumors, vs vehicle): 0.70
- ll1a mRNA Fold Change Test Group/Control Group (Hepa1-6 tumors, vs vehicle): 0.68
- ll1a mRNA Fold Up- or Down-Regulation Test Group/Control Group (Hepa1-6 tumors, vs vehicle): −1.47
- ll1a mRNA X axis (Log2(fold change)) (Hepa1-6 tumors, vs vehicle): −0.56
- ll1b mRNA Fold Change Test Group/Control Group (Hepa1-6 tumors, vs vehicle): 0.34
- ll1b mRNA Fold Up- or Down-Regulation Test Group/Control Group (Hepa1-6 tumors, vs vehicle): −2.92
- ll1b mRNA X axis (Log2(fold change)) (Hepa1-6 tumors, vs vehicle): −1.55
- ll1rn mRNA Fold Change Test Group/Control Group (Hepa1-6 tumors, vs vehicle): 0.68
- ll1rn mRNA Fold Up- or Down-Regulation Test Group/Control Group (Hepa1-6 tumors, vs vehicle): −1.47
- ll1rn mRNA X axis (Log2(fold change)) (Hepa1-6 tumors, vs vehicle): −0.56
- ll2 mRNA Fold Change Test Group/Control Group (Hepa1-6 tumors, vs vehicle): 0.30
- ll2 mRNA Fold Up- or Down-Regulation Test Group/Control Group (Hepa1-6 tumors, vs vehicle): −3.37
- ll2 mRNA X axis (Log2(fold change)) (Hepa1-6 tumors, vs vehicle): −1.75
- ll3 mRNA Fold Change Test Group/Control Group (Hepa1-6 tumors, vs vehicle): 0.36
- ll3 mRNA Fold Up- or Down-Regulation Test Group/Control Group (Hepa1-6 tumors, vs vehicle): −2.77
- ll3 mRNA X axis (Log2(fold change)) (Hepa1-6 tumors, vs vehicle): −1.47
- ll4 mRNA Fold Change Test Group/Control Group (Hepa1-6 tumors, vs vehicle): 0.34
- ll4 mRNA Fold Up- or Down-Regulation Test Group/Control Group (Hepa1-6 tumors, vs vehicle): −2.91
- ll4 mRNA X axis (Log2(fold change)) (Hepa1-6 tumors, vs vehicle): −1.54
- ll5 mRNA Fold Change Test Group/Control Group (Hepa1-6 tumors, vs vehicle): 0.42
- ll5 mRNA Fold Up- or Down-Regulation Test Group/Control Group (Hepa1-6 tumors, vs vehicle): −2.39
- ll5 mRNA X axis (Log2(fold change)) (Hepa1-6 tumors, vs vehicle): −1.26
- ll6 mRNA Fold Change Test Group/Control Group (Hepa1-6 tumors, vs vehicle): 0.34
- ll6 mRNA Fold Up- or Down-Regulation Test Group/Control Group (Hepa1-6 tumors, vs vehicle): −2.95
- ll6 mRNA X axis (Log2(fold change)) (Hepa1-6 tumors, vs vehicle): −1.56
- ll7 mRNA Fold Change Test Group/Control Group (Hepa1-6 tumors, vs vehicle): 0.97
- ll7 mRNA Fold Up- or Down-Regulation Test Group/Control Group (Hepa1-6 tumors, vs vehicle): −1.04
- ll7 mRNA X axis (Log2(fold change)) (Hepa1-6 tumors, vs vehicle): −0.05
- ll9 mRNA Fold Change Test Group/Control Group (Hepa1-6 tumors, vs vehicle): 0.27
- ll9 mRNA Fold Up- or Down-Regulation Test Group/Control Group (Hepa1-6 tumors, vs vehicle): −3.69
- ll9 mRNA X axis (Log2(fold change)) (Hepa1-6 tumors, vs vehicle): −1.88
- ll10 mRNA Fold Change Test Group/Control Group (Hepa1-6 tumors, vs vehicle): 0.23
- ll10 mRNA Fold Up- or Down-Regulation Test Group/Control Group (Hepa1-6 tumors, vs vehicle): −4.42
- ll10 mRNA X axis (Log2(fold change)) (Hepa1-6 tumors, vs vehicle): −2.14
- ll11 mRNA Fold Change Test Group/Control Group (Hepa1-6 tumors, vs vehicle): 0.24
- ll11 mRNA Fold Up- or Down-Regulation Test Group/Control Group (Hepa1-6 tumors, vs vehicle): −4.12
- ll11 mRNA X axis (Log2(fold change)) (Hepa1-6 tumors, vs vehicle): −2.04
- ll12a mRNA Fold Change Test Group/Control Group (Hepa1-6 tumors, vs vehicle): 0.48
- ll12a mRNA Fold Up- or Down-Regulation Test Group/Control Group (Hepa1-6 tumors, vs vehicle): −2.07
- ll12a mRNA X axis (Log2(fold change)) (Hepa1-6 tumors, vs vehicle): −1.05
- ll12b mRNA Fold Change Test Group/Control Group (Hepa1-6 tumors, vs vehicle): 0.29
- ll12b mRNA Fold Up- or Down-Regulation Test Group/Control Group (Hepa1-6 tumors, vs vehicle): −3.51
- ll12b mRNA X axis (Log2(fold change)) (Hepa1-6 tumors, vs vehicle): −1.81
- ll13 mRNA Fold Change Test Group/Control Group (Hepa1-6 tumors, vs vehicle): 0.32
- ll13 mRNA Fold Up- or Down-Regulation Test Group/Control Group (Hepa1-6 tumors, vs vehicle): −3.14
- ll13 mRNA X axis (Log2(fold change)) (Hepa1-6 tumors, vs vehicle): −1.65
- ll15 mRNA Fold Change Test Group/Control Group (Hepa1-6 tumors, vs vehicle): 0.84
- ll15 mRNA Fold Up- or Down-Regulation Test Group/Control Group (Hepa1-6 tumors, vs vehicle): 1.19
- ll15 mRNA X axis (Log2(fold change)) (Hepa1-6 tumors, vs vehicle): −0.25
- ll16 mRNA Fold Change Test Group/Control Group (Hepa1-6 tumors, vs vehicle): 0.53
- ll16 mRNA Fold Up- or Down-Regulation Test Group/Control Group (Hepa1-6 tumors, vs vehicle): −1.90
- ll16 mRNA X axis (Log2(fold change)) (Hepa1-6 tumors, vs vehicle): −0.93
- ll17a mRNA Fold Change Test Group/Control Group (Hepa1-6 tumors, vs vehicle): 0.33
- ll17a mRNA Fold Up- or Down-Regulation Test Group/Control Group (Hepa1-6 tumors, vs vehicle): −3.00
- ll17a mRNA X axis (Log2(fold change)) (Hepa1-6 tumors, vs vehicle): −1.59
- ll17f mRNA Fold Change Test Group/Control Group (Hepa1-6 tumors, vs vehicle): 0.75
- ll17f mRNA Fold Up- or Down-Regulation Test Group/Control Group (Hepa1-6 tumors, vs vehicle): −1.33
- ll17f mRNA X axis (Log2(fold change)) (Hepa1-6 tumors, vs vehicle): −0.41
- ll18 mRNA Fold Change Test Group/Control Group (Hepa1-6 tumors, vs vehicle): 0.89
- ll18 mRNA Fold Up- or Down-Regulation Test Group/Control Group (Hepa1-6 tumors, vs vehicle): −1.13
- ll18 mRNA X axis (Log2(fold change)) (Hepa1-6 tumors, vs vehicle): −0.17
- ll21 mRNA Fold Change Test Group/Control Group (Hepa1-6 tumors, vs vehicle): 0.29
- ll21 mRNA Fold Up- or Down-Regulation Test Group/Control Group (Hepa1-6 tumors, vs vehicle): −3.46
- ll21 mRNA X axis (Log2(fold change)) (Hepa1-6 tumors, vs vehicle): −1.79
- ll22 mRNA Fold Change Test Group/Control Group (Hepa1-6 tumors, vs vehicle): 0.37
- ll22 mRNA Fold Up- or Down-Regulation Test Group/Control Group (Hepa1-6 tumors, vs vehicle): −2.67
- ll22 mRNA X axis (Log2(fold change)) (Hepa1-6 tumors, vs vehicle): −1.42
- ll23a mRNA Fold Change Test Group/Control Group (Hepa1-6 tumors, vs vehicle): 0.44
- ll23a mRNA Fold Up- or Down-Regulation Test Group/Control Group (Hepa1-6 tumors, vs vehicle): −2.25
- ll23a mRNA X axis (Log2(fold change)) (Hepa1-6 tumors, vs vehicle): −1.17
- ll24 mRNA Fold Change Test Group/Control Group (Hepa1-6 tumors, vs vehicle): 0.43
- ll24 mRNA Fold Up- or Down-Regulation Test Group/Control Group (Hepa1-6 tumors, vs vehicle): −2.34
- ll24 mRNA X axis (Log2(fold change)) (Hepa1-6 tumors, vs vehicle): −1.23
- ll27 mRNA Fold Change Test Group/Control Group (Hepa1-6 tumors, vs vehicle): 0.46
- ll27 mRNA Fold Up- or Down-Regulation Test Group/Control Group (Hepa1-6 tumors, vs vehicle): −2.19
- ll27 mRNA X axis (Log2(fold change)) (Hepa1-6 tumors, vs vehicle): −1.13
- number of mRNAs with decreased expression [1]: 40 mRNAs
- number of mRNAs with increased expression [1]: 5 mRNAs
